According to patent publication US20260256763A1, “Aromatic Amide Derivative, And Preparation Method Therefor And Use Thereof” (Zhejiang Hisun Pharmaceutical Co., Ltd., priority 2023, published 2026):

Key:
OVCAR-3 cells = assay: Inhibition on OVCAR-3 cell proliferation (CellTiter-Glo); format: cell-based; settings: Homo sapiens, OVCAR-3 cells (TP53 R248Q mutation), 72 hours
Method: (§1) Influences of the compounds of the present invention on OVCAR-3 cell proliferation were determined by the following method. OVCAR-3 cells (containing TP53 R248Q mutation) were purchased from the Cell Bank of Shanghai Institute of Biochemistry and Cell Biology, Chinese Academy of Sciences, and cultured in an RPMI 1640 culture medium containing 1000 fetal bovine serum, 100 U penicillin and 100 μg/mL streptomycin. A cell viability was determined by a CellTiter-Glo® Luminescent Cell Viability Assay kit (Promega, article number G7573).
(§2) An experimental method was operated according to steps in the instruction of the kit, which was briefly described as follows: a test compound was dissolved in DMSO first to prepare a 10 mM stock solution, then the stock solution was diluted with the above RPMI 1640 culture medium to prepare a test sample, and a final concentration of the compound was in a range of 1000 nM-0.015 nM. Cells in a logarithmic growth phase were inoculated into a 96-well cell culture plate at a density of 1000 cells per well, cultured in a 5% CO2 incubator at 37° C. overnight, and then the test compound was added to continuously culture for 72 hours. After the culture was ended, 50 μL of CellTiter-Glo detection solution was added to each well, the plates were shaken for 5 minutes, and then allowed to stand for 10 minutes, and subsequently, a luminous value of each well of sample was read by a microplate reader in a Luminescence mode. By comparing with a numerical value of a control group (0.3% DMSO), a percentage inhibition rate of the compound at each concentration was calculated, and then nonlinear regression analysis was carried out based on concentration logarithm-inhibition rate of the compound in GraphPad Prism 5 software, so as to obtain an IC50 value of the compound in inhibition on cell proliferation, which are shown in Table 1.

HT-29 cells = assay: Inhibition on HT-29 cell proliferation (CellTiter-Glo); format: cell-based; settings: Homo sapiens, HT-29 cells (TP53 R273H mutation), 120 hours
Method: as §1, with “HT-29” for “OVCAR-3”, “R273H” for “R248Q”, “a McCOY's 5A” for “an RPMI 1640”, “10%” for “1000”
as §2, with “McCOY's 5A” for “RPMI 1640”, “120” for “72”, “µL” for “μL”, “2.” for “1.”

recombinant human KIF18A = molecular target: T1, recombinant human KIF18A (Homo sapiens, UniProt Q8NI77); assay: Inhibition on KIF18A enzyme activity (ADP-Glo); format: biochemical; settings: recombinant human KIF18A 100 nM, ATP 60 μM
T1 construct: purchased GenScript
Method: Inhibition degrees of the compounds of the present invention on recombinant human KIF18A enzyme activity in vitro were determined by the following method. An ADP-Glo™ Kinase Assay kit (article number V9102) from Promega Company was used in this method. Detailed experimental operation can be referred to the instruction of the kit.
The reaction was carried out in a 384-well microplate. The test compound and the recombinant human KIF18A protein (final concentration of 100 nM, entrusted to GenScript for expression) were added into the wells and incubated at room temperature for 20 minutes, and subsequently, ATP solution (component V915A from the ADP-Glo™ Kinase Assay kit, final concentration of 60 μM) was added to the reaction solution and the obtained system was incubated at room temperature for 20 minutes. Subsequently, 5 μL of ADP-Glo Reagent was added to the reaction system and the obtained system was incubated at room temperature for 50 minutes. Then, 10 μL of Kinase Detection Reagent was added to the reaction system, and the obtained system was incubated at room temperature for 30 minutes. After the incubation was ended, a chemiluminiscence intensity value of each well was determined by a microplate reader in a Luminescence mode.

T1 sequence (Q8NI77 whole entry): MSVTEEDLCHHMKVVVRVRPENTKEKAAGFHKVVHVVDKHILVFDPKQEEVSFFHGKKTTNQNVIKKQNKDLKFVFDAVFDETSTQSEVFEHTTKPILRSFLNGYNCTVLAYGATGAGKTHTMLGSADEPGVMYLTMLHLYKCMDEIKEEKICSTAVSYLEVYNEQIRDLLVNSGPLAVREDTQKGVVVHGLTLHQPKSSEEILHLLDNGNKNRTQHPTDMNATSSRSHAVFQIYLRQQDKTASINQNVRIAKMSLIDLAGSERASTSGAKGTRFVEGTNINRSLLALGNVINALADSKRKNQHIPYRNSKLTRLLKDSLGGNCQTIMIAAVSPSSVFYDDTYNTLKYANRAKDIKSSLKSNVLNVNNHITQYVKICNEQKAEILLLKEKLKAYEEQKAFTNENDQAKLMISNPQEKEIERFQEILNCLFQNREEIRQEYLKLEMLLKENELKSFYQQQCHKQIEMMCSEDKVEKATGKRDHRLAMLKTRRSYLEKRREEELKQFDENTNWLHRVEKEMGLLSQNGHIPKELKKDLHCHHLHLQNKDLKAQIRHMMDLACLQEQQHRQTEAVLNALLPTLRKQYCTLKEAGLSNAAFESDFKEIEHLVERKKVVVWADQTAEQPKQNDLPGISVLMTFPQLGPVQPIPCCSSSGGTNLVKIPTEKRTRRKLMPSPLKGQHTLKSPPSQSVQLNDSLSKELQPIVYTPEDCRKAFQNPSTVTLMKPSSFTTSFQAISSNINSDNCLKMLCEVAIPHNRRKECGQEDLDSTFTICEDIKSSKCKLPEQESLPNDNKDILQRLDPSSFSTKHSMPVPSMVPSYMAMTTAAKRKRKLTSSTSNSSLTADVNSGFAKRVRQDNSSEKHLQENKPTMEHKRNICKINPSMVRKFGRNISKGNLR
T1 sequence (P68363 whole entry partner): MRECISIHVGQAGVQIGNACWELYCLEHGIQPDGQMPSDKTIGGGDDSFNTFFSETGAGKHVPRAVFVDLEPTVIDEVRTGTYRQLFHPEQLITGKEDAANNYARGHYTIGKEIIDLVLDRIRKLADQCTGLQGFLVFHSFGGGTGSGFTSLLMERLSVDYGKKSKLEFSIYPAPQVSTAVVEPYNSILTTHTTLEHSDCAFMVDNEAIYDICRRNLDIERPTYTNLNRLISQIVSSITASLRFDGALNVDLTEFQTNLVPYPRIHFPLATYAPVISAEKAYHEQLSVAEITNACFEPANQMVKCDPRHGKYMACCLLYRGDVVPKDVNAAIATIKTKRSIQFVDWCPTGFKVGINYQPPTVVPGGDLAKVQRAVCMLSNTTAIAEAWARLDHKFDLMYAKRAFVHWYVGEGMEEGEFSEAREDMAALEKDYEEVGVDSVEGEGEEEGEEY
T1 sequence (Q9BVA1 whole entry partner): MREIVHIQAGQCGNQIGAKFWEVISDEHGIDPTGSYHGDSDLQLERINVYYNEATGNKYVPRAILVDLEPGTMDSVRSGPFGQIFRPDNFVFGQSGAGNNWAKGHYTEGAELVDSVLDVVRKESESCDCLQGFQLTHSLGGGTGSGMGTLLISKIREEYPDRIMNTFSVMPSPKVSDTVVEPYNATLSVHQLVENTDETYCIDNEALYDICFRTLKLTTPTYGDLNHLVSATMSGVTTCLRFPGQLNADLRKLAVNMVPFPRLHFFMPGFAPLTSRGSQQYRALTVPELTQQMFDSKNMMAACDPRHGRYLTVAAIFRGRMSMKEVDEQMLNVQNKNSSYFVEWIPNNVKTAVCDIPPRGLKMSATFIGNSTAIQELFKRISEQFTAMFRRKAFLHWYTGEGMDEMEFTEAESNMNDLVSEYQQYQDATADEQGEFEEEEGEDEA

Compound | IC50 (OVCAR-3 cells) | IC50 (HT-29 cells) | IC50 (recombinant human KIF18A)
O=C(Nc1cc2c(c(N3CCC(F)(F)CC3)c1)OCC2)c1ccc(NS(=O)(=O)C2CC2)cc1N1CCC2(CC1)CC2 [Example 7, 4-(cyclopropanesulfonamido)-N-(7-(4,4-difluoropyridin-1-yl)-2,3-dihydrobenzofuran-5-yl)-2-(6-azaspiro[2.5]octan-6-yl)benzamide] | 11 nM | 7.8 nM | 157 nM
CCS(=O)(=O)Nc1ccc(C(=O)Nc2cc3c(c(N4CCC(F)(F)CC4)c2)OCO3)c(N2CCC3(CC2)CC3)c1 [Example 13, N-(7-(4,4-difluoropiperidin-1-yl)benzo[d][1,3]dioxol-5-yl)-4-(ethylsulfonamido)-2-(6-azaspiro[2.5]octan-6-yl)benzamide] | 5.5 nM | 7.3 nM | 291 nM
CCS(=O)(=O)Nc1ccc(C(=O)Nc2cc3c(c(N4CC(F)(F)C4)c2)OCC3)c(N2CCC3(CC2)CC3)c1 [Example 6, N-(7-(3,3-difluoroazetidine-1-yl)-2,3-dihydrobenzofuran-5-yl)-4-(ethylsulfonamido)-2-(6-azaspiro[2.5]octan-6-yl)benzamide] | 9.1 nM | 10.7 nM | 60.9 nM
CCS(=O)(=O)Nc1ccc(C(=O)Nc2cc3c(c(N4CCC(F)(F)CC4)c2)C(=O)NC3)c(N2CCC3(CC2)CC3)c1 [Example 23, N-(7-(4,4-difluoropiperidin-1-yl)-1-oxoisoindolin-5-yl)-4-(ethylsulfonamido)-2-(6-azaspiro[2.5]octan-6-yl)benzamide] | 3.6 nM | 5.8 nM | 123 nM
CCS(=O)(=O)Nc1ccc(C(=O)Nc2cc(N3CCC(F)(F)CC3)c3cnn(C)c3c2)c(N2CCC3(CC2)CC3)c1 [Example 16, N-(4-(4,4-difluoropiperidin-1-yl)-1-methyl-1H-indazol-6-yl)-4-(ethylsulfonamido)-2-(6-azaspiro[2.5]octan-6-yl)benzamide] | 36.7 nM | 35.7 nM | 209 nM
CN1Cc2cc(NC(=O)c3ccc(NS(=O)(=O)CCO)cc3N3CCC4(CC3)CC4)cc(N3CCC(F)(F)CC3)c2C1=O [Example 28, N-(7-(4,4-difluoropiperidin-1-yl)-2-methyl-1-oxoisoindolin-5-yl)-4-((2-hydroxyethyl)sulfamine)-2-(6-azaspiro[2.5]octan-6-yl)benzamide] | 6.8 nM | 18.9 nM | 142 nM
CCS(=O)(=O)Nc1ccc(C(=O)Nc2cc(N3CC(F)(F)C3)c3nn(C)cc3c2)c(N2CCC3(CC2)CC3)c1 [Example 24, N-(7-(3,3-difluoroazetidin-1-yl)-2-methyl-2H-indazol-5-yl)-4-(ethylsulfonamido)-2-(6-azaspiro[2.5]octan-6-yl)benzamide] | 13.4 nM | 4.1 nM | 85.7 nM
CCS(=O)(=O)Nc1ccc(C(=O)Nc2cc3c(c(N4CCC(F)(F)CC4)c2)OCCC3)c(N2CCC3(CC2)CC3)c1 [Example 15] | 18.4 nM | 23.6 nM | –
CCS(=O)(=O)Nc1ccc(C(=O)Nc2cc3c(c(N4CCC(F)(F)CC4)c2)OCCO3)c(N2CCC3(CC2)CC3)c1 [Example 14, N-(8-(4,4-difluoropiperidin-1-yl)-2,3-dihydrobenzo[b][1,4]dioxin-6-yl)-4-(ethylsulfonamido)-2-(6-azaspiro[2.5]octan-6-yl)benzamide] | 8.4 nM | 9.2 nM | 184 nM
CCS(=O)(=O)Nc1ccc(C(=O)Nc2cc3c(c(N4CCC(F)(F)CC4)c2)C(=O)N(C)C3)c(N2CCC3(CC2)CC3)c1 [Example 2, N-(7-(4,4-difluoropiperidin-1-yl)-2-methyl-1-oxoisoindolin-5-yl)-4-(ethylsulfonamido)-2-(6-azaspiro[2.5]octan-6-yl)benzamide] | 4.3 nM | 3.9 nM | 142 nM
CCS(=O)(=O)Nc1ccc(C(=O)Nc2cc3c(c(N4CCCCC4)c2)OCC3)c(N2CCC3(CC2)CC3)c1 [Example 3, 4-(ethylsulfonamido)-N-(7-(piperidin-1-yl)-2,3-dihydrobenzofuran-5-yl)-2-(6-azaspiro[2.5]octan-6-yl)benzamide] | 11.2 nM | 6.6 nM | 72.5 nM
CCS(=O)(=O)Nc1ccc(C(=O)Nc2cc(N3CCC(F)(F)CC3)c3[nH]ncc3c2)c(N2CCC3(CC2)CC3)c1 [Example 21, N-(7-(4,4-difluoropiperidin-1-yl)-1H-indazol-5-yl)-4-(ethylsulfonamido)-2-(6-azaspiro[2.5]octan-6-yl)benzamide] | 16.6 nM | 13.8 nM | 229 nM
